Test results published in patent US20250197374A1, “WEE1 DEGRADING COMPOUNDS AND USES THEREOF” (BRISTOL-MYERS SQUIBB COMPANY, priority 2023, published 2025).
Like-named read-outs stand apart in the source and are kept apart here.

Legend:
Format in all cases: cell-based
[1] = molecular target: T1, WEE1 (Homo sapiens, UniProt P30291+Q96SW2); test: WEE1-ePL degradation assay (293T-LentiX, InCELL Hunter luminescence, 4 hr); details: for DC50: LentiX-HEK293T cells expressing WEE1-ePL, 4 hr incubation, read-out: 293T-LentiX WEE1-ePL Degradation 4 hr EC50; for 293T-LentiX WEE1-ePL Degradation 4 hr YMin (%): lower limit of fit, % of DMSO control signal remaining
T1 construct: C-terminal ePL-tagged (DiscoverX, Fremont, CA) full-length WEE1 expression construct; expressed in transfected cells; host or cells: LentiX-HEK293T (Invitrogen), lentivirally transduced; the cells also over-express GSPT1-GN
How it was run: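 EC50 comes from a four-parameter logistic fit of ePL luminescence (InCELL Hunter), with DMSO control defining Ymax. Compounds ran as 10-point 3-fold dilutions from 1 or 10 µM for 4 h at 37 °C. Cells were HEK293T-LentiX with ePL-tagged full-length WEE1 and over-expressed Cereblon-resistant GSPT1-GN.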

[2] = test system: MDA-MB-231 cells; test: MDA-MB-231 cell proliferation assay (Cell-Titer-Glo, 120 hr); details: for EC50: read-out: MDA-MB 231 Cell Prolif. 120 hr EC50; for MDA-MB 231 Cell Prolif. 120 hr YMin (%): minimal percent of DMSO control observed
How it was run: (§1)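 Growth inhibition was read as CellTiter-Glo luminescence after 120 h at 37 °C in RPMI/10% FBS, with 400 MKN45 or 800 MDA-MB-231 cells seeded per well. Compounds were tested in 10-point half-log series starting at 1 or 10 uM (0.1% DMSO), in triplicate for MKN45 and duplicate for MDA-MB-231. EC50 values are four-parameter fits to %DMSO control, and Ymin-obs is the minimal observed %DMSO.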

[3] = test system: MKN45 cells; test: MKN45 cell proliferation assay (Cell-Titer-Glo, 120 hr); details: for MKN45 Cell Prolif. 120 hr YMin (%): minimal percent of DMSO control observed; for EC50: read-out: MKN45 Cell Prolif. 120 hr EC50
How it was run: as §1

[4] = Homo sapiens, MDA-MB-231, 120 h

T1 sequence (P30291 whole entry): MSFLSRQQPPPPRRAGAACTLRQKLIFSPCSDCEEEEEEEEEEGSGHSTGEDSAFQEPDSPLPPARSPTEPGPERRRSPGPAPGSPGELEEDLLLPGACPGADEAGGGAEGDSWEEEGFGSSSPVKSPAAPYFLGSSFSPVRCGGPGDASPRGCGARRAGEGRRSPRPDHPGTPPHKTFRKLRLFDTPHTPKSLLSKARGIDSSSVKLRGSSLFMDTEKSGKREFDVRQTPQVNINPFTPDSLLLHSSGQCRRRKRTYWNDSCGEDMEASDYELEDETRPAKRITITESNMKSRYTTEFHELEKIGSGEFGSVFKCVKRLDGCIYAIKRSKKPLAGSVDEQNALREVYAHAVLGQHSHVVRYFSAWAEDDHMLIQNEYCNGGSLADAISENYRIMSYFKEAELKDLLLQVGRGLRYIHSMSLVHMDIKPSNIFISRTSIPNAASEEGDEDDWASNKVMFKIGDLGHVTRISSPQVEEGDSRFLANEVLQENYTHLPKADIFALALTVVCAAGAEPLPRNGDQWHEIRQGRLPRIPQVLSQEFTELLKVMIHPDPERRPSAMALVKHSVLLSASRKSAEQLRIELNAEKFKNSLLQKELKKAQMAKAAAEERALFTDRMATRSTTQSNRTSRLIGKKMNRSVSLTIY
T1 sequence (Q96SW2 whole entry): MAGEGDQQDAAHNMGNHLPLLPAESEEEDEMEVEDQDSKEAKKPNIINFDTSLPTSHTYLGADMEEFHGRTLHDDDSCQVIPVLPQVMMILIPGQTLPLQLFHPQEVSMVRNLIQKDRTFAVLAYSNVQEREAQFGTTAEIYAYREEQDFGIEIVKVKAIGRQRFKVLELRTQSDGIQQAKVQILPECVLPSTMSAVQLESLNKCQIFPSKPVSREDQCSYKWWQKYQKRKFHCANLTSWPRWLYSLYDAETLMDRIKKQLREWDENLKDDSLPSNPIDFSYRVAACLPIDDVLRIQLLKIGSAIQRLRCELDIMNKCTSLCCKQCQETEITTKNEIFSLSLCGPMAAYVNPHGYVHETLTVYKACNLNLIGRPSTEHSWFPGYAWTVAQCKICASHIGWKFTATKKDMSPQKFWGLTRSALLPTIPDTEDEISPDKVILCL
T1 sequence (Q16531 whole entry partner): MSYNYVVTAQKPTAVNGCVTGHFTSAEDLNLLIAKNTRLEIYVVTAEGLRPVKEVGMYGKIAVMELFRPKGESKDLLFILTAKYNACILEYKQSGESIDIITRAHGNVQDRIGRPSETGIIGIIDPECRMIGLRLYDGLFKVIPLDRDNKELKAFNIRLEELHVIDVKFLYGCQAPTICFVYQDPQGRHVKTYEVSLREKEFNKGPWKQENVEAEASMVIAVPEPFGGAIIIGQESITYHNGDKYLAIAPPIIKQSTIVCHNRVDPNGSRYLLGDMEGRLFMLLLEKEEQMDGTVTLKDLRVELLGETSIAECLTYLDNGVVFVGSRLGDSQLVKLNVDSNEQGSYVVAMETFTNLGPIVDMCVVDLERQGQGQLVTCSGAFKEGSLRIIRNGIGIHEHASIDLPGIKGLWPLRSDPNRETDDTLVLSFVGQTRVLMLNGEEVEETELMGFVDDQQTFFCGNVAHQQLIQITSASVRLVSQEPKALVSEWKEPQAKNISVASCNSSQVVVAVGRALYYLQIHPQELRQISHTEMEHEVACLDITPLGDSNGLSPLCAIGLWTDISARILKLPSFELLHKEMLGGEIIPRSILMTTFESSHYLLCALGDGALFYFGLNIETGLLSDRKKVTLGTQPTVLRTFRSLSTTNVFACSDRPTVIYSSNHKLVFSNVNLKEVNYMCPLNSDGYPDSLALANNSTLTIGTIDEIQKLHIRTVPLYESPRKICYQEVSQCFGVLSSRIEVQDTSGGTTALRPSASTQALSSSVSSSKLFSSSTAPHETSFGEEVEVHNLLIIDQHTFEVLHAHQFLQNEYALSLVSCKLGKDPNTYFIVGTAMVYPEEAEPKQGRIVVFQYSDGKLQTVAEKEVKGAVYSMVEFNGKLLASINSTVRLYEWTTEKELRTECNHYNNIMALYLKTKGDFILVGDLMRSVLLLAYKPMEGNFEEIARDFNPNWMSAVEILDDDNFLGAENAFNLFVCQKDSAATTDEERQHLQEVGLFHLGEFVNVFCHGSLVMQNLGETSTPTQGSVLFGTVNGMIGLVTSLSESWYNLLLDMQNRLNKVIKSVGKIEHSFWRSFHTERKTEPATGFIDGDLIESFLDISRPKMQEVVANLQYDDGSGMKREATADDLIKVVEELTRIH

| DC50 [1] [nM] | 293T-LentiX WEE1-ePL Degradation 4 hr YMin (%) [1] [%] | EC50 [2, 4] [nM] | EC50 ([3]; Homo sapiens, MKN-45, 120 h) [nM] | EC50 [2] [nM] | EC50 [3] [nM] | Structure (SMILES) | MDA-MB 231 Cell Prolif. 120 hr YMin (%) [2] [%] | MKN45 Cell Prolif. 120 hr YMin (%) [3] [%] |
| --- | --- | --- | --- | --- | --- | --- | --- | --- |
| 1 | 28.0 | 12 |  |  |  | COC[C@@H]1CN(Cc2cc3ccc(C4CCC(C(C)(C)O)CC4)cc3cn2)C[C@H]1Oc1ccc2c(c1)CN([C@H]1CCC(=O)NC1=O)C2=O (relative stereo) [Example 112, rel-(S)-3-(5-(((3S,4S)-1-((7-(4-(2-hydroxypropan-2-yl)cyclohexyl)isoquinolin-3-yl)methyl)-4-(methoxymethyl)pyrrolidin-3-yl)oxy)-1-oxoisoindolin-2-yl)piperidine-2,6-dione] | 25.2 | 8.7 |
|  | 85.0 | 2590 | 1 |  |  | O=C1CC[C@H](N2Cc3cc(O[C@@H]4CN(Cc5cc(F)c6nc(C7CCOCC7)ccc6c5)C[C@H]4c4ccccc4)ccc3C2=O)C(=O)N1 (relative stereo) [Example 116, (S)-3-(5-(((3S*,4R*)-1-((8-fluoro-2-(tetrahydro-2H-pyran-4-yl)quinolin-6-yl)methyl)-4-phenylpyrrolidin-3-yl)oxy)-1-oxoisoindolin-2-yl)piperidine-2,6-dione] | 89.1 | 83.5 |
|  | 92.4 | 286 |  |  |  | O=C1CC[C@H](N2Cc3cc(O[C@@H]4CN(Cc5cc(F)c6nc(C7CCOCC7)ccc6c5)C[C@H]4c4ccncc4)ccc3C2=O)C(=O)N1 (relative stereo) [Example 118, (S)-3-(5-(((3S*,4R*)-1-((8-fluoro-2-(tetrahydro-2H-pyran-4-yl)quinolin-6-yl)methyl)-4-(pyridin-4-yl)pyrrolidin-3-yl)oxy)-1-oxoisoindolin-2-yl)piperidine-2,6-dione] | 70.2 | 65.0 |
|  | 82.5 | 3490 |  |  |  | O=C1CC[C@H](N2Cc3cc(O[C@@H]4CN(Cc5cc(F)c6nc(C7CCOCC7)ccc6c5)C[C@H]4C4CCCC4)ccc3C2=O)C(=O)N1 (relative stereo) [Example 123, (S)-3-(5-(((3S*,4R*)-4-Cyclopentyl-1-((8-fluoro-2-(tetrahydro-2H-pyran-4-yl)-quinolin-6-yl)methyl)pyrrolidin-3-yl)oxy)-1-oxoisoindolin-2-yl)piperidine-2,6-dione] | 81.9 | 80.9 |
| 3 | 20.2 | 278 | 12 |  |  | Cc1cc([C@@H]2CN(Cc3cc(F)c4nc(C5CCOCC5)ccc4c3)C[C@H]2Oc2ccc3c(c2)CN([C@H]2CCC(=O)NC2=O)C3=O)cc(C)n1 (relative stereo) [Example 127, (3S)-3-(5-{[(3S*,4R*)-4-(2,6-dimethylpyridin-4-yl)-1-{[8-fluoro-2-(oxan-4-yl)quinolin-6-yl]methyl}pyrrolidin-3-yl]oxy}-1-oxo-2,3-dihydro-1H-isoindol-2-yl)piperidine-2,6-dione] | 40.1 | 9.8 |
| 6 | 78.0 | 5960 | 1 |  |  | CC(C)C[C@@H]1CN(Cc2cc(F)c3nc(C4CCOCC4)ccc3c2)C[C@H]1Oc1ccc2c(c1)CN([C@H]1CCC(=O)NC1=O)C2=O (relative stereo) [Example 130, (3S)-3-(5-{[(3S*,4R*)-1-{[8-fluoro-2-(oxan-4-yl)quinolin-6-yl]methyl}-4-(2-methylpropyl)pyrrolidin-3-yl]oxy}-1-oxo-2,3-dihydro-1H-isoindol-2-yl)piperidine-2,6-dione] | 84.1 | 94.4 |
| 4 | 22.4 | 2370 | 33 |  |  | O=C1CC[C@H](N2Cc3cc(O[C@H]4CN(Cc5cc(F)c6nc(C7CCOCC7)ccc6c5)C[C@@H]4c4ccccc4)ccc3C2=O)C(=O)N1 (relative stereo) [Example 145, (S)-3-(5-(((3R*,4S*)-1-((8-fluoro-2-(tetrahydro-2H-pyran-4-yl)quinolin-6-yl)methyl)-4-phenylpyrrolidin-3-yl)oxy)-1-oxoisoindolin-2-yl)piperidine-2,6-dione] | 74.7 | 16.3 |
| 1 | 24.2 | 585 | 3 |  |  | O=C1CC[C@H](N2Cc3cc(O[C@H]4CN(Cc5cc(F)c6nc(C7CCOCC7)ccc6c5)C[C@@H]4C4CCCC4)ccc3C2=O)C(=O)N1 (relative stereo) [Example 146, (S)-3-(5-(((3R*,4S*)-4-Cyclopentyl-1-((8-fluoro-2-(tetrahydro-2H-pyran-4-yl)-quinolin-6-yl)methyl)pyrrolidin-3-yl)oxy)-1-oxoisoindolin-2-yl)piperidine-2,6-dione] | 50.7 | 10.8 |
|  | 93.2 | 443 | 308 |  |  | Cc1cc([C@H]2CN(Cc3cc(F)c4nc(C5CCOCC5)ccc4c3)C[C@@H]2Oc2ccc3c(c2)CN([C@H]2CCC(=O)NC2=O)C3=O)cc(C)n1 (relative stereo) [Example 147, (S)-3-(5-(((3R*,4S*)-4-(2,6-dimethylpyridin-4-yl)-1-((8-fluoro-2-(tetrahydro-2H-pyran-4-yl)quinolin-6-yl)methyl)pyrrolidin-3-yl)oxy)-1-oxoisoindolin-2-yl)piperidine-2,6-dione] | 79.7 | 92.2 |
| 1 | 28.4 | 207 | 3 |  |  | CC(C)C[C@H]1CN(Cc2cc(F)c3nc(C4CCOCC4)ccc3c2)C[C@@H]1Oc1ccc2c(c1)CN([C@H]1CCC(=O)NC1=O)C2=O (relative stereo) [Example 148, (3S)-3-(5-{[(3R*,4S*)-1-{[8-fluoro-2-(oxan-4-yl)quinolin-6-yl]methyl}-4-(2-methylpropyl)pyrrolidin-3-yl]oxy}-1-oxo-2,3-dihydro-1H-isoindol-2-yl)piperidine-2,6-dione] | 74.8 | 9.9 |
| 7 | 24.4 | 429 | 23 |  |  | O=C1CC[C@H](N2Cc3cc(O[C@H]4CN(Cc5cc(F)c6nc(C7CCOCC7)ccc6c5)C[C@@H]4c4ccncc4)ccc3C2=O)C(=O)N1 (relative stereo) [Example 149, ((S)-3-(5-(((3R*,4S*)-1-((8-fluoro-2-(tetrahydro-2H-pyran-4-yl)quinolin-6-yl)methyl)-4-(pyridin-4-yl)pyrrolidin-3-yl)oxy)-1-oxoisoindolin-2-yl)piperidine-2,6-dione] | 68.7 | 11.0 |
| 368 | 30.7 |  | 75 | 1560 |  | CN1CC2(CC(c3ccc4cc(CN5CC[C@H](Oc6ccc7c(c6)CN([C@H]6CCC(=O)NC6=O)C7=O)C5)ccc4n3)CO2)C1 (single isomer, unassigned) [Example 1, (S)-3-(5-(((S)-1-((2-((R*)-2-methyl-5-oxa-2-azaspiro[3.4]octan-7-yl)quinolin-6-yl)methyl)pyrrolidin-3-yl)oxy)-1-oxoisoindolin-2-yl)piperidine-2,6-dione] | 70.9 | 16.1 |
| 339 | 33.4 |  |  | 234 | 53 | CN1CC2(CC(c3ccc4cc(CN5CC[C@H](Oc6ccc7c(c6)CN([C@H]6CCC(=O)NC6=O)C7=O)C5)ccc4n3)CO2)C1 (single isomer, unassigned) [Example 2, (S)-3-(5-(((S)-1-((2-((S*)-2-methyl-5-oxa-2-azaspiro[3.4]octan-7-yl)quinolin-6-yl)methyl)pyrrolidin-3-yl)oxy)-1-oxoisoindolin-2-yl)piperidine-2,6-dione] | 73.8 | 28.1 |
| 14 | 30.9 | 146 | 23 |  |  | CN1CC[C@]2(C[C@@H](c3ccc4cc(CN5CC[C@H](Oc6ccc7c(c6)CN([C@H]6CCC(=O)NC6=O)C7=O)C5)ccc4n3)CO2)C1 (single isomer, unassigned) [Example 4] | 61.3 | 12.6 |
